Experimental data published in ChEMBL document CHEMBL5244275, “Geminal Diheteroatomic Motifs: Some Applications of Acetals, Ketals, and Their Sulfur and Nitrogen Homologues in Medicinal Chemistry and Drug Design” (J Med Chem, 2021).
≈ marks a conversion by molar mass, not a printed value. Numbered stars: 1 amine (or outer) side, 2 acyl side, 3 side chain; on linkers, the order of the positions; unused ones are H or OH. Bridge positions count the residues as written; N and C are the ends. Square brackets hold non-standard residues; d marks the D form. Peptide text beside a SMILES is read from it. * marks the point of attachment. Orn(4R-OH,5R-OH) = O=C([C@H](C[C@@H](O)[C@@H](O)N[*:3])N[*:1])[*:2]; Tetradecanoyl(10R,12S-Me2) = CC[C@H](C)C[C@H](C)CCCCCCCCC(=O)*; hTyr(3S-OH,4S-OH) = N[C@H](C(=O)O)[C@H](O)[C@@H](O)c1ccc(O)cc1; Gln(3R-OH) = NC(=O)C[C@@H](O)[C@H](N)C(=O)O; Pro(3S-OH) = O=C(O)[C@H]1NCC[C@@H]1O; Hyp = O=C(O)[C@@H]1C[C@@H](O)CN1

Legend:
Staphylococcus aureus = test: Antibacterial activity against Staphylococcus aureus 01A0785 assessed as inhibition of bacterial growth by microdilution method; format: functional
Escherichia coli [1] = test: Antibacterial activity against Escherichia coli 51A0150 assessed as inhibition of bacterial growth by microdilution method; format: functional
Pasteurella multocida = test: Antibacterial activity against Pasteurella multocida 59A0067 assessed as inhibition of bacterial growth by microdilution method; format: functional
[2] = Stability of the compound in 20% aqueous dioxane solution at 30 degreeC assessed as compound hydrolysis by measuring rate constant; format: physicochemical; settings: buffer
Plasmodium falciparum [3] = test: Antiplasmodial activity against Plasmodium falciparum FcM29 assessed as inhibition of plasmodial growth; format: functional, organism-based
[4] = Stability of the compound at pH 1 assessed as half-life; format: physicochemical; settings: buffer
[5] = Oral bioavailability in rat; format: ADME, organism-based; settings: in vivo
Hepatitis C virus = test: Antiviral activity against Hepatitis C virus genotype 1a harboring NS5A Y93H mutant; format: functional, organism-based, Hepacivirus hominis
[6] = Oral bioavailability in dog; format: ADME, organism-based, Canis lupus familiaris; settings: in vivo
[7] = Oral bioavailability in monkey; format: ADME, organism-based, Macaca mulatta; settings: rhesus monkey, in vivo
[8] = Oral bioavailability in human; format: ADME, organism-based; settings: in vivo
Escherichia coli [9] = test: Inhibition of Escherichia coli beta-lactamase at 1 uM relative to control
[10] = Aqueous stability of the compound assessed as acid-catalyzed decomposition by measuring rate constant; format: physicochemical; settings: buffer
[11] = Aqueous solubility of compound; format: physicochemical; settings: aqueous (not further specified)
Plasmodium falciparum [12] = test: Antiplasmodial activity against Plasmodium falciparum W2 assessed as inhibition of parasite growth; format: functional, organism-based
[13] = Stability of the compound in 0.01 N HCL at pH 2.0 assessed as half-life; format: physicochemical
[14] = Cmax in rat plasma at 20 mg/kg, po; format: ADME, organism-based; design: dose 20 mg/kg, route po
Candida albicans [15] = test: Fungicidal activity against Candida albicans; format: functional
Candida albicans [16] = test: Antifungal activity against Candida albicans GS; format: functional, organism-based
[17] = Inhibition of Leukotriene B4 production in human blood Polymorphonuclear neutrophil cells; format: functional, tissue-based
[18] = target: Human immunodeficiency virus type 1 protease (Human immunodeficiency virus 1, UniProt Q72874); test: Inhibition of HIV-1 protease
Mus musculus = test: Antiinflammatory activity in LPS-induced Balb/c mouse model assessed as reduction in TNF-alpha release administered orally for 30 mins followed by LPS-stimulation and measured after 90 mins by ELISA analysis; format: functional; settings: 2 h, route po, time 120 min
[19] = Stability of the compound assessed as acid hydrolysis by measuring half-life; format: physicochemical
[20] = tested on: Human immunodeficiency virus 1; test: microbe, parasite or virus in culture; settings: Human immunodeficiency virus 1, LAV
[21] = target: T1, Neutrophil elastase (Homo sapiens) (UniProt P08246); test: Time-dependent inhibition of human leukocyte elastase assessed as observed binding constant
T1 sequence (whole entry): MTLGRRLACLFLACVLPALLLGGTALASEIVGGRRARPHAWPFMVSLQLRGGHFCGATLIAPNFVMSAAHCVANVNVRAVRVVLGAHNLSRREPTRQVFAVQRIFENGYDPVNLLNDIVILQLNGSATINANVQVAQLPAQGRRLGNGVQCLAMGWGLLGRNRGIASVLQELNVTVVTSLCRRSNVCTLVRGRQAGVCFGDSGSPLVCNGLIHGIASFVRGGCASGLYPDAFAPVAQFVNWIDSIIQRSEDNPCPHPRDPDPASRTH

[22] = Stability of the compound at pH 8 assessed as compound hydrolysis by measuring half-life; format: physicochemical; settings: buffer

## CC[C@H]1OC(=O)[C@H](C)[C@@H](O[C@H]2C[C@@](C)(OC)[C@@H](O)[C@H](C)O2)[C@H](C)[C@@H](O[C@@H]2O[C@H](C)C[C@H](N(C)C)[C@H]2O)[C@](C)(O)C[C@@H](C)CN(C)[C@H](C)[C@@H](O)[C@]1(C)O [AZITHROMYCIN]
Staphylococcus aureus
  MIC: 0.2 µg/mL (≈ 0.267 µM)
Escherichia coli [1]
  MIC: 1.56 µg/mL (≈ 2.08 µM)
Pasteurella multocida
  MIC: 0.1 µg/mL (≈ 0.134 µM)

## c1ccc(C2(c3ccccc3)OCCO2)cc1
[2]
  K: 3.6 10^-2/M/s

## CC1(C)COC2(CCC(N[C@H]3CC[C@H](Nc4ccnc5cc(Cl)ccc45)CC3)CC2)OO1 (some centres undefined)
Plasmodium falciparum [3]
  IC50: 10 nM

## Nc1ccn([C@H]2C=C[C@@H](CO)O2)c(=O)n1
[4]
  half-life: 0.2 h

## COC(=O)N[C@H](C(=O)N1CCC[C@H]1c1nc(-c2ccc3c(c2)O[C@@H](c2ccccc2)n2c-3cc3cc(-c4c[nH]c([C@@H]5CCCN5C(=O)[C@@H](NC(=O)OC)C(C)C)n4)ccc32)c[nH]1)C(C)C [ELBASVIR]
[5]
  bioavailability: 9%
Hepatitis C virus
  EC50: 2.4 nM
[6]
  bioavailability: 35%
[7]
  bioavailability: 17%
[8]
  bioavailability: 32%

## CC1(C)[C@H](C(=O)O)N2C(=O)/C(=C/c3ccccn3)[C@H]2S1(=O)=O
Escherichia coli [9]
  inhibition: 100%

## O=C(O)[C@H]1/C(=C/CO)O[C@@H]2CC(=O)N21
Escherichia coli [9]
  inhibition: 81%

## Cc1ccc(C2(c3ccc(C)cc3)OCCO2)cc1
[2]
  K: 1.7 10^-1/M/s

## Clc1ccc(C2OCCS2)cc1 (centres undefined)
[10]
  K: 0.00978 min⁻¹

## C1CCC2(CC1)OOC1(O2)C2CC3CC(C2)CC1C3 (centres undefined)
[11]
  solubility: < 0.001 mg/mL
[5]
  bioavailability: < 1%

## C[C@@H]1CC[C@H]2[C@@H](C)C(=O)O[C@@H]3O[C@@]4(C)CC[C@@H]1[C@]32OO4 [ARTEMISININ]
Plasmodium falciparum [12]
  IC50: 2.8 nM
[13]
  half-life: 24 h
Plasmodium falciparum [3]
  IC50: 7 nM

## COC(=O)N[C@H](C(=O)N1CCC[C@H]1c1ncc(-c2ccc3c(c2)CCn2c-3cc3cc(-c4cnc([C@@H]5CCCN5C(=O)[C@@H](NC(=O)OC)C(C)C)[nH]4)ccc32)[nH]1)C(C)C
Hepatitis C virus
  EC50: 170 nM

## N#Cc1cc(-c2ccoc2)c2ccc(OCc3cccc(C4(O)CC5COC(C4)O5)n3)cc2c1 (centres undefined)
[5]
  bioavailability: 26%
[14]
  Cmax: 5 µM
[6]
  bioavailability: 73%

## CC[C@H](C)C[C@H](C)CCCCCCCCC(=O)N[C@H]1C[C@@H](O)[C@@H](O)NC(=O)[C@@H]2[C@@H](O)CCN2C(=O)[C@H]([C@H](O)CC(N)=O)NC(=O)[C@H]([C@H](O)[C@@H](O)c2ccc(O)cc2)NC(=O)[C@@H]2C[C@@H](O)CN2C(=O)[C@H]([C@@H](C)O)NC1=O ({Tetradecanoyl(10R,12S-Me2)}-[Orn(4R-OH,5R-OH)]T[Hyp][hTyr(3S-OH,4S-OH)][Gln(3R-OH)][Pro(3S-OH)]; lactam 1-C)
Candida albicans [15]
  MFC: 0.25 µg/mL (≈ 0.235 µM)
Candida albicans [16]
  IC50: 70 nM

## CC(C)[C@H](N)C(=O)OCCOCn1cnc2c(=O)[nH]c(N)nc21 [VALACYCLOVIR]
[11]
  solubility: 174 mg/mL (≈ 536000 µM)
[8]
  bioavailability: 54%

## N#Cc1cc(-c2ccoc2)c2ccc(OCc3cccc(C4(O)CC5COC(C4)O5)c3)cc2c1 (centres undefined)
[17]
  IC50: 3 nM
[5]
  bioavailability: 10%
[14]
  Cmax: 2.5 µM

## CC(C)CN(C[C@@H](O)[C@H](Cc1ccccc1)NC(=O)O[C@H]1C2CO[C@H]3OCC1C3C2)S(=O)(=O)c1ccc2oc(NC3CC3)nc2c1 (some centres undefined)
[18]
  IC50: 0.26 nM

## O=C1OCc2c1cc1cc(OCc3cccc(C4(O)CC5CCC(C4)O5)c3)ccc1c2-c1ccccc1 (centres undefined)
[17]
  IC50: 8 nM

## C[S+]([O-])c1ccc(-c2nc(-c3ccncc3)c(-c3ccc(F)cc3)[nH]2)cc1 (centres undefined) [SB-203580]
[5]
  bioavailability: 10%
Mus musculus
  ED50: 10 mg/kg

## COc1ccc(C2OCCS2)cc1 (centres undefined)
[10]
  K: 0.778 min⁻¹

## O=c1[nH]cnc2c1ncn2[C@@H]1O[C@H](CO)C[C@@H]1F
[19]
  half-life: > 1 min

## CCOC(OCC)(c1ccccc1)c1ccccc1
[2]
  K: 4.3 10^-1/M/s

## Nc1nc(=O)n([C@@H]2CS[C@H](CO)O2)cc1F [EMTRICITABINE]
[20]
  EC50: 8 nM
[8]
  bioavailability: 60%

## CC[C@@H]1C(=O)N(C(C)=O)[C@H]1Oc1ccc(C(=O)O)cc1
[21]
  K: 6.7 10^3/M/s
[22]
  half-life: 8.6 h

## Nc1ncnc2c1ncn2[C@@H]1O[C@H](CO)C[C@@H]1F [LODENOSINE]
[19]
  half-life: > 1 min

## c1ccc(C2OCCS2)cc1 (centres undefined)
[10]
  K: 0.0194 min⁻¹
